Drawing on US20260234123A1, “Inhibitors of NLRP3” (Mwyngil Therapeutics, Inc., priority 2023, published 2026), this text covers EC50 for 25 compounds.

Structures are written as SMILES.

This assay deals with IL1b release THP-1. The experiment in a line: IL1b release THP-1 (ELISA). In kind it is cell-based. Particulars: Homo sapiens; average EC50; THP-1 cells primed with 1 μg/ml LPS 4 h, stimulated with 10 μM Nigericin 2 h; IL-1β in supernatant by ELISA; read-out: THP 1 IL 1b, EC50. As to the method: Example A. Primary Assays Used to Determine IL1b Release THP-1 (ELISA)
• Microbiological safety cabinet, classII (NuAire, USA) • CO2 incubator (VWR Science, USA) • Countess Automated Cell Counter (Invitrogen, USA, cat. number C10227) • Centrifuge CM 6M (Elmi, Latvia) • Serological pipettes 2, 5, 10, 25, 50, 100 ml sterile (Santa Cruz Biotechnology, Inc., USA, sc-200277, sc-200279, sc-200281, sc-200283, Sc-213234, sc-516777) • Single and multichannel pipettes 0.2-10 μL, 50-1200 μL (Eppendorf AG-Hamburg, Germany) • 50 mL PP sterile tubes (Greiner, cat. Number 210261).
• RPMI-1640 (PanEco, C330) • Sodium pyruvate (Paneco, cat. number Φ023) • Non-Essential amino acids 50× (Paneco, Φ116) • Essential amino acids 50× (Paneco, Φ115/50) • FBS (Hyclone Laboratories Inc, USA, SV30160.03) • Antibiotic-antimycotic (Gibco, USA, 15240-062) • 2-mercaptoethanol 1000×55 mM (Gibco, USA, 21985-023) • LPS-EB ultrapure (invivogen, cat. number tlrl-3pelps) • Nigericin (Sigma, cat. number N7143) • ELISA kit, IL-1beta (Cat #A-8766, Interleukin-1 beta-EIA-BEST, Vector Best). LPS Preparation (5 mg/ml): • 1. Add 1 ml of endotoxin-free water according manufacturer's protocol • 2. Vortex until complete solubilization • 3. Aliquote and store at […] for long term storage.
• 1. Add methanol to 10 mg of powder to produce the 10 mM Nigericin solution • 2. Vortex until complete solubilization • 3. Store at 4° C.
THP-1 cells were propagated in RPMI-1640 (10% FBS, Antibiotic-antimycotic 1×, non-Essential amino acids 1×, Essential amino acids 1×, Sodium pyruvate 2×, 2-mercaptoethanol 0.05 mM) at 37° C. and at 5% CO2 in an incubator.
• 1. THP-1 cells were spined at 100 g for 5 min in 50 ml tube. • 2. THP-1 cells were resuspended in warm culture medium (w/o FBS, w/o Antibiotic-antimycotic, non-Essential amino acids 1×, Essential amino acids 1×, Sodium pyruvate 2×) to the concentration 1,3×10^6 cells. • 3. THP-1 cells were primed in tube with 1 μg/ml of LPS for 4 h at 37° C. and at 5% CO2 in an incubator. • 4. THP-1 cells were stimulated with 10 μM of Nigericin (Cat #N7143-10 MG, Sigma Aldrich) for 2 h at 37° C. and at 5% CO2 in an incubator. • 5. After the full activation, the supernatant was collected and the levels of IL-1β were assessed via ELISA according manufacturer instructions (Cat #A-8766, Vector Best).
The average EC50 values are shown in Table A, wherein “A” corresponds to EC50: A≤0.5 μM, “B” corresponds to 0.5 μM<EC50≤1.0 μM, “C” 1.0 μM<EC50≤5.0 μM, “D” corresponds to 5.0 μM<EC50≤30 μM and “E” corresponds to EC50>30 μM.
Take `Cc1cc(N[C@@H]2CCCN(C)C2)nnc1-c1ccc(C(F)(F)F)c2c1NS(=O)(=O)N2` [Compound 10, (R)-4-(4-Methyl-6-((1-methylpiperidin-3-yl)amino)pyridazin-3-yl)-7-(trifluoromethyl)-1,3-dihydrobenzo[c][1,2,5]thiadiazole 2,2-dioxide]: the EC50 – broadly, the concentration that produces a half-maximal response – was in the range of 5 to 30 µM.
The result for `Cc1cc(N[C@@H]2CCCN(CC(C)C)C2)nnc1-c1ccc(C(F)(F)F)cc1NS(C)(=O)=O` [Compound 46, (R)—N-(2-(6-((1-Isobutylpiperidin-3-yl)amino)-4-methylpyridazin-3-yl)-5-(trifluoromethyl)phenyl) methanesulfonamide] reads 0.5 to 1 µM; that for `CCN1CCC[C@@H](Nc2ccc(-c3c(C)cc(C(F)(F)F)cc3NS(C)(=O)=O)nn2)C1` [Compound 2, (R)—N-(2-(6-((1-Ethylpiperidin-3-yl)amino)pyridazin-3-yl)-3-methyl-5-(trifluoromethyl)phenyl) methanesulfonamide], 0.5 to 1 µM; that for `CN1CCC[C@@H](Nc2nnc(-c3ccc(C(F)(F)F)cc3NS(C)(=O)=O)c3c2CCCC3)C1` [Compound 50, (R)—N-(2-(4-((1-Methylpiperidin-3-yl)amino)-5,6,7,8-tetrahydrophthalazin-1-yl)-5-(trifluoromethyl)phenyl) methane sulfonamide], 1 to 5 µM.
The result for `CNc1cc(C(F)(F)F)ccc1-c1cc(C)c(N[C@@H]2CCCN(C(C)C)C2)nn1` [Compound 119, N-[(3R)-1-isopropyl-3-piperidyl]-4-methyl-6-[2-(methylamino)-4-(trifluoromethyl)phenyl]pyridazin-3-amine] reads under 0.5 µM; that for `Cc1cc(N[C@@H]2CCCN(Cc3ccccc3)C2)nnc1-c1ccc(C(F)(F)F)cc1NS(C)(=O)=O` [Compound 44, N-[2-[6-[[(3R)-1-benzyl-3-piperidyl]amino]-4-methyl-pyridazin-3-yl]-5-(trifluoromethyl)phenyl]methanesulfon-amide], 0.5 to 1 µM; that for `CCN1C[C@H](F)C[C@@H](Nc2nnc(-c3ccc(C(F)(F)F)cc3NS(C)(=O)=O)cc2C)C1` [Compound 66, N-(2-(6-(((3R,5R)-1-ethyl-5-fluoropiperidin-3-yl)amino)-5-methylpyridazin-3-yl)-5-(trifluoromethyl)phenyl) methanesulfonamide], 0.5 to 1 µM.
Then `CCN1CCC[C@@H](Nc2cc(C)c(-c3ccc(C(F)(F)F)cc3NS(=O)(=O)c3c[nH]cn3)nn2)C1` [Compound 69, N-[2-[6-[[(3R)-1-ethyl-3-piperidyl]amino]-4-methyl-pyridazin-3-yl]-5-(trifluoromethyl)phenyl]-1H-imidazole-4-sulfonamide], with 1 to 5 µM.
As to `Cc1cc(N[C@@H]2CCCN(C(C)C)C2)nnc1-c1ccc(C(F)(F)F)cc1NC(=O)C(F)F` [Compound 113], the EC50 is under 0.5 µM.
`CCN1CCC[C@@H](Nc2cc(C)c(-c3ccc(C(F)(F)F)cc3NS(=O)(=O)C(C)C)nn2)C1` [Compound 70, N-[2-[6-[[(3R)-1-ethyl-3-piperidyl]amino]-4-methyl-pyridazin-3-yl]-5-(trifluoromethyl)phenyl]propane-2-sulfonamide]: the EC50 fell in the range of 1 to 5 µM.
Consider `Cc1cc(N[C@@H]2CCCN(C(C)C)C2)nnc1-c1ccc(C(F)(F)F)cc1NC(=O)C(F)(F)C(F)(F)F` [Compound 123, (R)-2,2,3,3,3-Pentafluoro-N-(2-(6-((1-isopropylpiperidin-3-yl)amino)-4-methylpyridazin-3-yl)-5-(trifluoromethyl)phenyl) propanamide], for which the EC50 was 1 to 5 µM.
Then `Cc1cc(N[C@@H]2CCCN(C3CCOCC3)C2)nnc1-c1ccc(C(F)(F)F)cc1NS(C)(=O)=O` [Compound 39], with under 0.5 µM.
Take `CCN1CCC[C@@H](Nc2nnc(-c3ccc(C(F)(F)F)cc3NS(C)(=O)=O)c3c2C2CCC3CC2)C1` [Compound 30, (R)—N-(2-(4-((1-Ethylpiperidin-3-yl)amino)-5,6,7,8-tetrahydro-5,8-ethanophthalazin-1-yl)-5-(trifluoromethyl)phenyl) methanesulfonamide]: the EC50 is under 0.5 µM.
On to `CC(=O)Nc1cc(C(F)(F)F)ccc1-c1nnc(N[C@@H]2CCCN(C(C)C)C2)cc1C` [Compound 136, N-[2-[6-[[(3R)-1-isopropyl-3-piperidyl]amino]-4-methyl-pyridazin-3-yl]-5-(trifluoromethyl)phenyl]acetamide], for which the concentration giving a half-maximal response (EC50) lay in the range of 0.5 to 1 µM.
Turning to `Cc1cc(N[C@@H]2CCCN(C3CCC3)C2)nnc1-c1ccc(C(F)(F)F)cc1NS(C)(=O)=O` [Compound 34], the EC50 is under 0.5 µM.
Take `Cc1cc(N[C@@H]2CCCN(C)C2)nnc1-c1ccc(C(F)(F)F)cc1NS(C)(=O)=O` [Compound 4, (R)—N-(2-(4-Methyl-6-((1-methylpiperidin-3-yl)amino)pyridazin-3-yl)-5-(trifluoromethyl)phenyl) methanesulfonamide]: the EC50 fell in the range of 0.5 to 1 µM.
The result for `CCN1CCC[C@@H](Nc2cc(C)c(-c3ccc(C(F)(F)F)cc3NS(=O)(=O)C3CC3)nn2)C1` [Compound 65, (R)—N-(2-(6-((1-Ethylpiperidin-3-yl)amino)-4-methylpyridazin-3-yl)-5-(trifluoromethyl)phenyl) cyclopropanesulfonamide] reads under 0.5 µM; that for `CN1CCC[C@@H](Nc2nnc(-c3ccc(C(F)(F)F)cc3NS(C)(=O)=O)c3c2C2CCC3CC2)C1` [Compound 54, N-[2-[6-[[(3R)-1-methyl-3-piperidyl]amino]-4,5-diazatricyclo[6.2.2.02,7]dodeca-2(7),3,5-trien-3-yl]-5-(trifluoromethyl)phenyl]methanesulfon-amide], 5 to 30 µM.
On to `CC(=O)Nc1cc(C(F)(F)F)ccc1-c1cc(C)c(N[C@@H]2CCCN(C(C)C)C2)nn1` [Compound 137, N-[2-[6-[[(3R)-1-isopropyl-3-piperidyl]amino]-5-methyl-pyridazin-3-yl]-5-(trifluoromethyl)phenyl]acetamide], for which the EC50 was 1 to 5 µM.
Take `Cc1cc(N[C@@H]2CCCN(C3CCCCC3)C2)nnc1-c1ccc(C(F)(F)F)cc1NS(C)(=O)=O` [Compound 41, N-[2-[6-[[(3R)-1-cyclohexyl-3-piperidyl]amino]-4-methyl-pyridazin-3-yl]-5-(trifluoromethyl)phenyl]methanesulfon-amide]: the EC50 was under 0.5 µM.
As to `CCN1CCC[C@@H](Nc2cc(C)c(-c3ccc(C(F)(F)F)c4cn[nH]c34)nn2)C1` [Compound 15, (R)—N-(1-Ethylpiperidin-3-yl)-5-methyl-6-(4-(trifluoromethyl)-1H-indazol-7-yl)pyridazin-3-amine], the EC50 is 1 to 5 µM.
As to `CCN1CCC[C@@H](Nc2cc(C)c(-c3ccc(C(F)(F)F)cc3NS(=O)(=O)CC)nn2)C1` [Compound 63, N-[2-[6-[[(3R)-1-ethyl-3-piperidyl]amino]-4-methyl-pyridazin-3-yl]-5-(trifluoromethyl)phenyl]ethanesulfon-amide], the EC50 is under 0.5 µM.
Turning to `CCN1CCC[C@@H](Nc2nnc(-c3ccc(C(F)(F)F)cc3NC(C)=O)cc2C)C1` [Compound 133, N-[2-[6-[[(3R)-1-ethyl-3-piperidyl]amino]-5-methyl-pyridazin-3-yl]-5-(trifluoromethyl)phenyl]acetamide], the EC50 lay within 0.5 to 1 µM.
As for `Cc1cc(-c2ccc(C(F)(F)F)c3cn[nH]c23)nnc1N[C@@H]1CCCN(CCO)C1` [Compound 19, 2-[(3R)-3-[[4-methyl-6-[4-(trifluoromethyl)-1H-indazol-7-yl]pyridazin-3-yl]amino]-1-piperidyl]ethanol], the EC50 was over 30 µM.
With `Cc1cc(N[C@@H]2CCCN(CCO)C2)nnc1-c1ccc(C(F)(F)F)c2cn[nH]c12` [Compound 16, (R)-2-(3-((5-Methyl-6-(4-(trifluoromethyl)-1H-indazol-7-yl)pyridazin-3-yl)amino)piperidin-1-yl) ethan-1-ol], the EC50 was 1 to 5 µM.
